Results published in patent publication US11090293B2 (Ovid Therapeutics Inc., priority 2018, dated 2021).
Where two headings read alike, the source gives them in different places.

Assays:
[1] = human, in vivo, po
[2] = human, in vivo

Row | Compound | residual effect on Choice Reaction Time and Critical Flicker Fusion [1] | CLR ([2]; both, iv, 10 mg) [mL/min] | half-life (t½) ([2]; both, po) [h] | CLR ([2]; both, po, 2.5 mg) [mL/min] | AUC0-∞ ([2]; both, po, 5 mg) [ng·h/mL] | CLR ([2]; both, po, 5 mg) [mL/min] | AUC0-∞ ([2]; both, po, 10 mg) [ng·h/mL] | AUC0-∞ ([2]; both, po, 15 mg) [ng·h/mL] | CLR ([2]; both, po, 15 mg) [mL/min] | AUC0-∞ ([2]; both, po, 20 mg) [ng·h/mL] | CLR ([2]; both, po, 20 mg) [mL/min] | CL/F (CL for 10 mg IV) ([2]; iv, 10 mg) [mL/min] | Slope (90% CI) of AUC0-∞, dose proportionality assessment ([2]; po)
1 | Oc1noc2c1CCNC2 [gaboxadol, 4,5,6,7-tetrahydroisoxazolo [5,4-c]pyridine-3-ol] | did not show residual effect | 208 | 1.5 | 196 | 171 | 222 | 346 | 539 | 234 | 669 | 265 | 438 | 0.98 (0.95, 1.01)
2 | CCN(CC)CCN1C(=O)CN=C(c2ccccc2F)c2cc(Cl)ccc21 [Flurazepam] | showed significant effect |  |  |  |  |  |  |  |  |  |  |  | 
